Test [1] in a line: DRUGMATRIX: Calcium Channel Type L, Dihydropyridine radioligand binding (ligand: [3H] Nitrendipine). Type of test: cell membranes, Rattus norvegicus, Wistar, Cerebral cortex, Membrane. The following applies: Not Active = under 50% inhibition at 10 µM.
Test [2] deals with T1, Alpha-1B adrenergic receptor (Rattus norvegicus, UniProt P15823).
T1 sequence (P15823 whole entry): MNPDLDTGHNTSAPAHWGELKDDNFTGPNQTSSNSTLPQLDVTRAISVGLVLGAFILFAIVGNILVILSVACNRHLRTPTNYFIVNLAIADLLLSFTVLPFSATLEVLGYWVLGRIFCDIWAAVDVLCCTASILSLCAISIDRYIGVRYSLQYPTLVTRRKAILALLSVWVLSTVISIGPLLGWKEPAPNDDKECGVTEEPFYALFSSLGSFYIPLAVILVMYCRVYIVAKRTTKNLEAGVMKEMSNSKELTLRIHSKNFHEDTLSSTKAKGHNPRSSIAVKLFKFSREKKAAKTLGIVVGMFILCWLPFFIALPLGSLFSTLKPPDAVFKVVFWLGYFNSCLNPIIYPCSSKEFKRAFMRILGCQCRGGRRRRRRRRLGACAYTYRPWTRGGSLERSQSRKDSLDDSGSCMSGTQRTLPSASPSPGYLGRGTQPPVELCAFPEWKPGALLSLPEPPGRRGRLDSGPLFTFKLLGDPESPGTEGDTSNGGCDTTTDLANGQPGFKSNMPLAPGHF
Description: DRUGMATRIX: Alpha-1B adrenergic receptor radioligand binding (ligand: prazosin). The class given is cell membranes, Wistar, Liver, Membrane. The following applies: Not Active = under 50% inhibition at 10 µM.

Test [3] addresses T2, C-C chemokine receptor type 4 (Homo sapiens, UniProt P51679).
T2 sequence (P51679 whole entry): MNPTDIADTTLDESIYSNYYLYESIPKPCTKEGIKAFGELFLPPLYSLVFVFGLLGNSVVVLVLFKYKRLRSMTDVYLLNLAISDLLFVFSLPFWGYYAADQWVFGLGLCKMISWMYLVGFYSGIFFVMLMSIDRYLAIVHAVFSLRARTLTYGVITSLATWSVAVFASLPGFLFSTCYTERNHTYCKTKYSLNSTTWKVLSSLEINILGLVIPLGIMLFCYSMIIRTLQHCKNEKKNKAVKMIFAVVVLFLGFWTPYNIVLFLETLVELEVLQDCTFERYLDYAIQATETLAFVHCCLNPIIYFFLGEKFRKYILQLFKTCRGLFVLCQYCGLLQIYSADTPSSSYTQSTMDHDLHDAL
Type of test: cell membranes, Membrane. The following applies: chem-1.

A short description of test [4]: DRUGMATRIX: Phosphodiesterase PDE4 enzyme inhibition (substrate: [3H]cAMP + cAMP). The following applies: u-937; Not Active = under 50% inhibition at 10 µM.
Test [5] can be described thus: DRUGMATRIX: Serotonin (5-Hydroxytryptamine) 5-HT3 radioligand binding (ligand: [3H] GR-65630). The class given is cell membranes, Membrane. The following applies: hek293; Not Active = under 50% inhibition at 10 µM.
Test [6] addresses T3, Nitric oxide synthase, inducible (Mus musculus, UniProt P29477).
T3 sequence (P29477 whole entry): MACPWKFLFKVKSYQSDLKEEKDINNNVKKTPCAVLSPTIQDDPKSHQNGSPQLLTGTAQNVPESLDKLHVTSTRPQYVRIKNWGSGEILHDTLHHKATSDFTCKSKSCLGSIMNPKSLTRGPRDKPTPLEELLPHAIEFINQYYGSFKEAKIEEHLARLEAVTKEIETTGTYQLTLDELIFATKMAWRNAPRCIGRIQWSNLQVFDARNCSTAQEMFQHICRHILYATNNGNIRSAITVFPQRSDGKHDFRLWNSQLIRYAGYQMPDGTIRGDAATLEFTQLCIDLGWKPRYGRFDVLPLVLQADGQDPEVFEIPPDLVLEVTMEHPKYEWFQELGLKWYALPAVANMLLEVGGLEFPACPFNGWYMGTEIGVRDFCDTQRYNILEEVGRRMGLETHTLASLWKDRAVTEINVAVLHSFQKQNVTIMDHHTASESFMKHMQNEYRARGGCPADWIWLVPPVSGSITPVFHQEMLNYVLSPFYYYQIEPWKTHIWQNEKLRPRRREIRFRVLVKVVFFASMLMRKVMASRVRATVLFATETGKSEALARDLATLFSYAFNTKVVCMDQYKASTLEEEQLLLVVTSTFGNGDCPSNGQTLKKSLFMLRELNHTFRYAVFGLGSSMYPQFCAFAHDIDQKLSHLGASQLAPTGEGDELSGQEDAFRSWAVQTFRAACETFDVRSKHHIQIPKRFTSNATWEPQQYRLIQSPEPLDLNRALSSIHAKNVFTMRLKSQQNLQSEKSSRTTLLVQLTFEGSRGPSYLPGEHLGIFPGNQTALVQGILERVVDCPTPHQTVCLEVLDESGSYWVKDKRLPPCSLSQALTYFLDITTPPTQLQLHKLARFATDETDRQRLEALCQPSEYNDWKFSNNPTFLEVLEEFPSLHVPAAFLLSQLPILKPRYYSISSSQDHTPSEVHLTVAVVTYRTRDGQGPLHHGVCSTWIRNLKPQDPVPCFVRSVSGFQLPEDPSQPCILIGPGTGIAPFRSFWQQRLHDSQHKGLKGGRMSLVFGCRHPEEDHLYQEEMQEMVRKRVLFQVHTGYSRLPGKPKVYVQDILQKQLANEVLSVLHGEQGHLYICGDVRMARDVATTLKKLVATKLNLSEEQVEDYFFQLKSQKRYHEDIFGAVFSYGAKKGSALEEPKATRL
Set-up: species or system Escherichia coli.

The next test addresses T4, Endothelin-1 receptor (Homo sapiens, UniProt P25101).
T4 sequence (P25101 whole entry): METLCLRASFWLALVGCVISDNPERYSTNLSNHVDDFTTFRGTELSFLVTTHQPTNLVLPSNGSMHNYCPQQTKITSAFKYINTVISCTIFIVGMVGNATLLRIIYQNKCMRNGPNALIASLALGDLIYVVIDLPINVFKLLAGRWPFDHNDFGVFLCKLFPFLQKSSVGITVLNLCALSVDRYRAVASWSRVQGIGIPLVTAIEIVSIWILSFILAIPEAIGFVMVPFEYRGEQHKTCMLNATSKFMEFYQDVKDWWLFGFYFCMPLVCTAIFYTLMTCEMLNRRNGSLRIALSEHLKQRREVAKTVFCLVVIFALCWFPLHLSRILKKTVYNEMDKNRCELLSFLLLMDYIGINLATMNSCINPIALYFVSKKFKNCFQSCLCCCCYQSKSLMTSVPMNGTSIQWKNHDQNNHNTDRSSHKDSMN
Type of test: cell membranes, Membrane. The following applies: cho-k1.

Test [7] deals with Epidermal growth factor receptor (Homo sapiens, UniProt P00533). The experiment in a line: DRUGMATRIX: Protein Tyrosine Kinase, EGF Receptor enzyme inhibition (substrate: Poly(Glu:Tyr)). The class given is cell-based, Insect cells. The following applies: insect cells; Not Active = under 50% inhibition at 10 µM.
Epidermal growth factor receptor, sequence (P00533 whole entry): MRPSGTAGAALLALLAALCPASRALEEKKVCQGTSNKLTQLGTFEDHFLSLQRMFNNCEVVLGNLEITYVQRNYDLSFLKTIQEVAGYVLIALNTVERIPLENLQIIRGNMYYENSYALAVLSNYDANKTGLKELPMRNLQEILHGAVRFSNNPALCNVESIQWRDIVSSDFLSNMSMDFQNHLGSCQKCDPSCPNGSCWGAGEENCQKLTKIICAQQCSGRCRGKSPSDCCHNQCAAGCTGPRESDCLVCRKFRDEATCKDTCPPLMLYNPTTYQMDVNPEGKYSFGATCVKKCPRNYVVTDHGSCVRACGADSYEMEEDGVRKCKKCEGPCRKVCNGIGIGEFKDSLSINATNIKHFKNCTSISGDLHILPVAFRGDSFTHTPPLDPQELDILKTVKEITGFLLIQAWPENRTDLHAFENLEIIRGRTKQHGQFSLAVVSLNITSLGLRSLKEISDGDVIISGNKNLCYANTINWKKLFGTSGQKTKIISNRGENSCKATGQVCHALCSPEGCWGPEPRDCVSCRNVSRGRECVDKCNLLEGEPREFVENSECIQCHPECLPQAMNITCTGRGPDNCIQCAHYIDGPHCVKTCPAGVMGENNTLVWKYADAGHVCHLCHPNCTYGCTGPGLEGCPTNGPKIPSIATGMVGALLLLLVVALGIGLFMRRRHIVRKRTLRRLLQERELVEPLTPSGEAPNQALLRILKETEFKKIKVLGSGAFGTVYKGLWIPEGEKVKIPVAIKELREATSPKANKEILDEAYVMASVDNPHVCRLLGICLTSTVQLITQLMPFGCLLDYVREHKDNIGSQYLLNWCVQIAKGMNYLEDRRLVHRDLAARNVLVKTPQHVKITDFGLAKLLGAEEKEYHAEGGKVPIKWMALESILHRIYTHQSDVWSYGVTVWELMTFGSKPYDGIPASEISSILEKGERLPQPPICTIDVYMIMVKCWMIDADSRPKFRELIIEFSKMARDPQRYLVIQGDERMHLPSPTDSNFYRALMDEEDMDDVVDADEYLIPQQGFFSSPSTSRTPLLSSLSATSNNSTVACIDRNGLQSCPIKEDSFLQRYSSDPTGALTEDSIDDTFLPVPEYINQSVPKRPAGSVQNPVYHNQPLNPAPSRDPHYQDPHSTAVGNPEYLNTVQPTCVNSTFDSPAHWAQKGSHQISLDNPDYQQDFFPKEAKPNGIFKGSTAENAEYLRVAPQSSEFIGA
Test [8] can be described thus: DRUGMATRIX: Nicotinic Acetylcholine radioligand binding (ligand: [125I] Epibatidine). The following applies: imr-32; Not Active = under 50% inhibition at 10 µM. The class given is cell membranes, Membrane.

Consider `NNC(=O)c1ccncc1` [ISONIAZID], for which the IC50 entry in test [1], in [2], in [3], in [4], in test [5] and in test [6] was “Not Active” each time. Further, the half-maximal inhibitory concentration (IC50) entry (on Endothelin-1 receptor; in [7]; in [8]) was “Not Active” in each case. The inhibition constant Ki result in test [1], in [4], in test [5] and in test [8] was “Not Active” throughout.

In the case of `CC1=C(/C=C/C(C)=C/C=C/C(C)=C\C(=O)O)C(C)(C)CCC1` [ISOTRETINOIN], the IC50 entry in [1], in test [2], in [3], in test [4], in [5] and in test [6] was “Not Active” each time. Also, the IC50 entry (on Endothelin-1 receptor; in test [7]; in [8]) was “Not Active” throughout. For the same compound, the Ki entry in [1], in test [4], in test [5] and in test [8] was “Not Active” in each case.

Take `CO[C@@H]1[C@@H](O[C@@H]2O[C@H](C)[C@@H](O[C@H]3C[C@@](C)(O)[C@@H](OC(=O)CC(C)C)[C@H](C)O3)[C@H](N(C)C)[C@H]2O)[C@@H](CC=O)C[C@@H](C)[C@@H](O)/C=C/C=C/C[C@@H](C)OC(=O)C[C@H]1O` [KITASAMYCIN]: the IC50 result in test [1], in test [2], in test [3], in test [4], in test [5] and in [6] was “Not Active” each time. Also, the IC50 result (at Endothelin-1 receptor; in test [7]; in test [8]) was “Not Active” in each case. In addition, the Ki entry in test [1], in [4], in test [5] and in test [8] was “Not Active” each time.

As for `CC(CCc1ccccc1)NCC(O)c1ccc(O)c(C(N)=O)c1` (configuration not stated) [LABETALOL], the IC50 result in test [1] is “Not Active”; in [2] (read-out: IC50) it was 583 nM; in [3], “Not Active”; in [4], “Not Active”; in test [5], “Not Active”; in test [6], “Not Active”. Further, the IC50 result (against Endothelin-1 receptor; in test [7]; in test [8]) was “Not Active” throughout. Also, the Ki result in test [1] is “Not Active”; in [2] (read-out: Ki) it was 323 nM; in test [4] it was “Not Active”; in test [5], “Not Active”; in test [8] it was “Not Active”.

Turning to `Nc1nnc(-c2cccc(Cl)c2Cl)c(N)n1` [LAMOTRIGINE], the IC50 entry in test [1], in test [2], in test [3], in [4], in [5] and in test [6] was “Not Active” each time. For the same compound, the IC50 entry (against Endothelin-1 receptor; in test [7]; in test [8]) was “Not Active” in each case. Moreover, the Ki result in [1], in test [4], in test [5] and in test [8] was “Not Active” throughout.

Take `CCC[C@@H]1C[C@@H](C(=O)N[C@@H]([C@H]2O[C@H](SC)[C@H](O)[C@@H](O)[C@H]2O)[C@@H](C)O)N(C)C1` [LINCOMYCIN]: the IC50 result in test [1], in test [2], in test [3], in test [4], in test [5] and in [6] was “Not Active” in each case. Besides, the 50% inhibitory concentration (IC50) entry (on Endothelin-1 receptor; in test [7]; in test [8]) was “Not Active” in each case. Further, the inhibition constant (Ki) entry in test [1], in test [4], in [5] and in test [8] was “Not Active” in each case.

Consider `NCCCC[C@H](N[C@@H](CCc1ccccc1)C(=O)O)C(=O)N1CCC[C@H]1C(=O)O` [LISINOPRIL ANHYDROUS], for which the 50% inhibitory concentration (IC50) result in [1], in [2], in [3], in test [4], in [5] and in test [6] was “Not Active” throughout. Besides, the 50% inhibitory concentration (IC50) entry (against Endothelin-1 receptor; in [7]; in test [8]) was “Not Active” each time. The Ki entry in [1], in [4], in test [5] and in test [8] was “Not Active” in each case.

The record behind these values is ChEMBL document CHEMBL1909046, “DrugMatrix in vitro pharmacology data”.
